From ChEMBL document CHEMBL1933009, “SAR studies on the central phenyl ring of substituted biphenyl oxazolidinone-potent CETP inhibitors” (Bioorg Med Chem Lett, 2012) come the findings set out here.

Experiment [1] has as its target T1, Cholesteryl ester transfer protein (Homo sapiens, UniProt P11597).
T1 sequence (P11597 whole entry): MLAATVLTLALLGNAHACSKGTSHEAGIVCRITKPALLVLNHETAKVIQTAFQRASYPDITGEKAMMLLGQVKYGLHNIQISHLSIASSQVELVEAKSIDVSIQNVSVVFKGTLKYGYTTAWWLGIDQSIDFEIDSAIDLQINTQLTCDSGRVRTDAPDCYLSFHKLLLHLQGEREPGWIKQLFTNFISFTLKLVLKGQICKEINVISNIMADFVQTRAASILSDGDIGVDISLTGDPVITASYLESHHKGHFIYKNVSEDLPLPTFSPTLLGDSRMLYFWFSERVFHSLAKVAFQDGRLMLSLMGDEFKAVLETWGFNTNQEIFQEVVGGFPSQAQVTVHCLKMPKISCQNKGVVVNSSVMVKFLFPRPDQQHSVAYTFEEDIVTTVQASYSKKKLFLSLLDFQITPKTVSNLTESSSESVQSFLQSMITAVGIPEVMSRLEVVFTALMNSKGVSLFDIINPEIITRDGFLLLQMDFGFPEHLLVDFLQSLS
The experiment can be described thus: Inhibition of CETP-mediated neutral lipid transfer by fluorometric analysis.

The subject of the next experiment is Mus musculus. Nature of the experiment: Cardioprotective activity in transgenic B6 mouse expressing cynomolgus monkey CETP assessed as increase in HDL-cholesterol level at 10 mg/kg, po BID measured after 24 hrs of first dose. The class given is functional.

In experiment [1], `COc1cc(F)c(C(C)C)cc1-c1ccccc1CN1C(=O)O[C@H](c2cc(C(F)(F)F)cc(C(F)(F)F)c2)[C@@H]1C` showed a concentration for half-maximal inhibition (IC50) of 31.2 nM.

For `COc1cc(F)c(C(C)C)cc1-c1ccc(F)cc1CN1C(=O)O[C@H](c2cc(C(F)(F)F)cc(C(F)(F)F)c2)[C@@H]1C`, in experiment [1], it took 25 nM to reach half-maximal inhibition (IC50). For the same compound, the Activity in the experiment with Mus musculus turned out to be 8 mg/dL.

`COc1cc(F)c(C(C)C)cc1-c1ccc(Cl)cc1CN1C(=O)O[C@H](c2cc(C(F)(F)F)cc(C(F)(F)F)c2)[C@@H]1C` had a concentration for half-maximal inhibition (IC50) in experiment [1] of 16.5 nM. Moreover, in the experiment with Mus musculus, the Activity was found to be 12.7 mg/dL.

Take `COc1cc(F)c(C(C)C)cc1-c1ccc(Br)cc1CN1C(=O)O[C@H](c2cc(C(F)(F)F)cc(C(F)(F)F)c2)[C@@H]1C`: the IC50 in experiment [1] came out at 19.8 nM. Also, the Activity in the experiment on Mus musculus is 23 mg/dL.

In turn, `COc1cc(F)c(C(C)C)cc1-c1ccc(I)cc1CN1C(=O)O[C@H](c2cc(C(F)(F)F)cc(C(F)(F)F)c2)[C@@H]1C` returned an IC50 in experiment [1] of 23.5 nM.

On to `COc1cc(F)c(C(C)C)cc1-c1ccc(C#N)cc1CN1C(=O)O[C@H](c2cc(C(F)(F)F)cc(C(F)(F)F)c2)[C@@H]1C`, for which it took 23.3 nM to reach half-maximal inhibition in experiment [1] (IC50). The Activity with Mus musculus worked out at 14.8 mg/dL.

On to `COc1cc(F)c(C(C)C)cc1-c1ccc([N+](=O)[O-])cc1CN1C(=O)O[C@H](c2cc(C(F)(F)F)cc(C(F)(F)F)c2)[C@@H]1C`, for which the IC50 in experiment [1] turned out to be 13.3 nM. In addition, the Activity in the experiment on Mus musculus was found to be 21.5 mg/dL.

`COc1cc(F)c(C(C)C)cc1-c1ccc(N)cc1CN1C(=O)O[C@H](c2cc(C(F)(F)F)cc(C(F)(F)F)c2)[C@@H]1C` returned an IC50 in experiment [1] of 296 nM.

With `COc1cc(F)c(C(C)C)cc1-c1ccc(C)cc1CN1C(=O)O[C@H](c2cc(C(F)(F)F)cc(C(F)(F)F)c2)[C@@H]1C`, half-maximal inhibition in experiment [1] (IC50) was put at 16.7 nM. Also, in the experiment on Mus musculus, the Activity was determined as 13.8 mg/dL.

The compound `COc1cc(F)c(C(C)C)cc1-c1ccc(C(C)C)cc1CN1C(=O)O[C@H](c2cc(C(F)(F)F)cc(C(F)(F)F)c2)[C@@H]1C` gave an IC50 in experiment [1] of 54.1 nM.

For the compound `COc1cc(F)c(C(C)C)cc1-c1ccc(C(C)(C)C)cc1CN1C(=O)O[C@H](c2cc(C(F)(F)F)cc(C(F)(F)F)c2)[C@@H]1C`, in experiment [1], the half-maximal inhibitory concentration (IC50) is 24.9 nM. For the same compound, the Activity with Mus musculus is 21 mg/dL.

On to `COc1cc(F)c(C(C)C)cc1-c1ccc(SC)cc1CN1C(=O)O[C@H](c2cc(C(F)(F)F)cc(C(F)(F)F)c2)[C@@H]1C`, for which the IC50 in experiment [1] stood at 16.2 nM. Further, the Activity with Mus musculus amounted to 16.4 mg/dL.

Take `CCCSc1ccc(-c2cc(C(C)C)c(F)cc2OC)c(CN2C(=O)O[C@H](c3cc(C(F)(F)F)cc(C(F)(F)F)c3)[C@@H]2C)c1`: the IC50 in experiment [1] worked out at 1230 nM.

In experiment [1], `COc1cc(F)c(C(C)C)cc1-c1ccc(SC(C)C)cc1CN1C(=O)O[C@H](c2cc(C(F)(F)F)cc(C(F)(F)F)c2)[C@@H]1C` returned an IC50 of 689 nM.

On to `COc1cc(F)c(C(C)C)cc1-c1ccc(SC(F)(F)F)cc1CN1C(=O)O[C@H](c2cc(C(F)(F)F)cc(C(F)(F)F)c2)[C@@H]1C`, for which the half-maximal inhibitory concentration (IC50) in experiment [1] was determined as 19.6 nM. In addition, the Activity with Mus musculus was determined as 12.4 mg/dL.

Compound `COc1cc(F)c(C(C)C)cc1-c1ccc(C2=CCCC2)cc1CN1C(=O)O[C@H](c2cc(C(F)(F)F)cc(C(F)(F)F)c2)[C@@H]1C` yielded an IC50 in experiment [1] of 254 nM.

`COc1cc(F)c(C(C)C)cc1-c1ccc(C(C)(C)F)cc1CN1C(=O)O[C@H](c2cc(C(F)(F)F)cc(C(F)(F)F)c2)[C@@H]1C` returned an IC50 in experiment [1] of 18 nM. The Activity in the experiment with Mus musculus stood at 23.2 mg/dL.

The compound `COc1cc(F)c(C(C)C)cc1-c1ccc(C(C)(C)O)cc1CN1C(=O)O[C@H](c2cc(C(F)(F)F)cc(C(F)(F)F)c2)[C@@H]1C` yielded a concentration for half-maximal inhibition (IC50) in experiment [1] of 71.8 nM.

The compound `COc1cc(F)c(C(C)C)cc1-c1ccc(C2CC2)cc1CN1C(=O)O[C@H](c2cc(C(F)(F)F)cc(C(F)(F)F)c2)[C@@H]1C` displayed an IC50 in experiment [1] of 24.8 nM. In the experiment with Mus musculus, the Activity was found to be 20.6 mg/dL.

As for `COc1cc(F)c(C(C)C)cc1-c1ccc(S(C)(=O)=O)cc1CN1C(=O)O[C@H](c2cc(C(F)(F)F)cc(C(F)(F)F)c2)[C@@H]1C`, the IC50 in experiment [1] was found to be 33.5 nM.

Compound `CCCS(=O)(=O)c1ccc(-c2cc(C(C)C)c(F)cc2OC)c(CN2C(=O)O[C@H](c3cc(C(F)(F)F)cc(C(F)(F)F)c3)[C@@H]2C)c1` displayed a half-inhibitory concentration (IC50) in experiment [1] of 6930 nM.

Regarding `COc1cc(F)c(C(C)C)cc1-c1ccc(S(=O)(=O)C(C)C)cc1CN1C(=O)O[C@H](c2cc(C(F)(F)F)cc(C(F)(F)F)c2)[C@@H]1C`, inhibition in experiment [1] was half-maximal at 2600 nM (IC50).

In the case of `COc1cc(F)c(C(C)C)cc1-c1ccc(S(=O)(=O)C(F)(F)F)cc1CN1C(=O)O[C@H](c2cc(C(F)(F)F)cc(C(F)(F)F)c2)[C@@H]1C`, the IC50 in experiment [1] was determined as 27.1 nM.

Consider `COc1cc(F)c(C(C)C)cc1-c1ccc(C(F)(F)F)cc1CN1C(=O)O[C@H](c2cc(C(F)(F)F)cc(C(F)(F)F)c2)[C@@H]1C` [ANACETRAPIB], for which, in the experiment on Mus musculus, the Activity turned out to be 28 mg/dL.

Broadly, the IC50 is the concentration at which inhibition is half-maximal.
